Values quoted from earlier work in US11241503B2, “Oxadiazole linkers and use thereof” (NewBio Therapeutics, Inc., priority 2017, dated 2022).
pIC50: −log10 of the molar value.

Tested on: human carcinoma lines

pIC50: 6.70 to 7.00
SMILES: COc1cccc2c1C(=O)c1c(O)c3c(c(O)c1C2=O)C[C@@](O)(C(=O)CO)C[C@@H]3O[C@H]1C[C@H](N)[C@H](O)[C@H](C)O1 [doxorubicin, Doxorubicin]
